Here are results for two molecules from patent US20230134986A1, “GLUCOSE TRIPTOLIDE CONJUGATES AND USES THEREOF” (The Johns Hopkins University, priority 2020, published 2023).

In assay [1] the test system is T7115 (C342T XPB knock-in HEK293T cells). Kind of assay: Proliferation of XPB C342T knock-in cell line T7115 ([3H]-thymidine incorporation). The assay is classed as cell-based, human. The following applies: C342T XPB knock-in versus isogenic WT 293T. The text has this: (§1) Cells and culture conditions. Primary astrocytes (Lonza, Walkersville, Md.; ABM™ Basal Media with AGM™ SingleQuots™ Supplement Pack), fibroblast (ATCC; Fibroblast Basal Medium (ATCC© PCS-201-030™) with Fibroblast Growth Kit-Serum-free (ATCC© PCS-201-040™)), airway epithelial cell (ATCC; Airway Epithelial Cell Basal Medium (ATCC© PCS-300-030™) with Bronchial Epithelial Cell Growth Kit (ATCC© PCS-300-040™)), renal proximal tubule (ATCC; Renal Epithelial Cell Basal Medium (ATCC© PCS-400-030™) with Renal Epithelial Cell Growth Kit (ATCC© PCS-400-040™)), prostate epithelial cell (Lonza; PrEGM™ BulletKit™) and mammary epithelial cell (Lonza; MEBM™ BulletKit™) were kept in a humidified incubator at 37° C. adjusted to 5% CO2. […]
On the technique in general: Dividing cells build labelled thymidine or BrdU into new DNA.

The test system of the next assay is MCF-7. Kind of assay: MCF-7 proliferation under hypoxia ([3H]-thymidine incorporation). The conditions noted are these: MCF-7, 1% O2, 48 h post treatment. Type of assay: cell-based, human.
The subject of the next assay is HeLa. Kind of assay: HeLa proliferation under hypoxia ([3H]-thymidine incorporation). Type of assay: cell-based, human. The conditions noted are these: 1% O2, 48 h post treatment.
Another assay concerns PC3. Kind of assay: XTT viability assay, PC3. Type of assay: cell-based. The conditions noted are these: Homo sapiens, PC-3, Prostate Cancer.
Excerpt: as §1
XTT assay. […] Cell viability was measured using the R&D Systemsm TACS XTT Cell Proliferation/Viability Assay (R&D Systems, Minneapolis, Minn.).
In general terms: Formazan colour is commonly taken as a measure of viable cells.

Take `CC(C)[C@]12O[C@H]1[C@@H]1O[C@]13[C@]1(O[C@H]1C[C@H]1C4=C(CC[C@@]13C)C(=O)OC4)[C@@H]2OC(=O)CCCO[C@@H]1OC(CO)[C@@H](O)C(O)C1O` (stereo in doubt) [Compound 1]: the “sensitivity of T7115 mutant line (proliferation)” value in assay [1] is “resistant”. Further, the “effect of hypoxia on anti-proliferative effect” value is “modest enhancement” in the assay on MCF-7 and “enhances the anti-proliferative effect” with HeLa.

One may read the IC50 as the concentration at which inhibition is half-maximal. In turn, `CC(C)[C@]12O[C@H]1[C@@H]1O[C@]13[C@]1(O[C@H]1C[C@H]1C4=C(CC[C@@]13C)C(=O)OC4)[C@@H]2OC(=O)CCC(=O)O[C@@H]1OC(CO)[C@@H](O)C(O)C1O` (stereo partly shown) [Compound 10] returned an IC50 in the assay on PC3 of 500 ± 100 nM.
